Columns and labels:
[1] = system: P. aeruginosa H187; assay type: cell-based, Pseudomonas aeruginosa; settings: H187
Description: (§1) The following bacterial strains were utilized: Escherichia coli UB1005 (wt) and its antibiotic supersusceptible derivative DC2 (Clark, 1984); Excherichia coli SC9251 and its polymixin B rasistant mutant pmrA SC9252 (Peterson, et al., 1987) Pseudomonas aeruginosa H187 (wt) (Angus, et al., 1987) and its antibiotic-sensitive derivative H188 (Zimmerman, W, Antimicrob. Agents Chemother. 18: 94-100, 1980); methicillin sensitive Staphylococcus aureus K147 (Kreiswirth, et al., 1983); Staphylococcus aureus SAP0017, a methicillin resistant clinical isolate from Dr. A. Chow (University of British Columia); Bacillus subtilis, an environmental wt lab strain. Enterococcus faecalis are ATCC 29212 cells and Staphylococcus epidermidis was a clinical isolate from Dr. D. Speert (University of British Columbia). Antifungal activity was tested using a clinical lab isolate of Candida albicans. Salmonella typhinurium C57 and C610 (Fields, P.I., et al., Science 243: 1059-1062 (1989) Corynebacterium xerosis was an environmental isolate (University of British Columbia).
(§2) It is now apparent that agar-based assays severely underestimate antifungal activity as well as activity against gram negative microorganisms (Kondejewski, et al., 1996). Consequently, in the studies reported herein, a liquid-broth method was used to measure the antibiotic properties of the peptides. […] Briefly, cells were grown overnight at 37° C. in LB and diluted in the same medium. Serial dilutions of antibiotics were added to the microtitre plates in a volume of 100 μL followed by 10 μL of bacteria to give a final inoculum of 5×10^5 CFU/mL. Plates were incubated at 37° C. overnight and MICs determined as the lowest antibiotic concentration that inhibited growth.
(§3) The results from antimicrobial and hemolytic assays are combined to provide a “Therapeutic Index” (TI) for each peptide with respect to individual microorganisms. As reported herein, the TI is calculated as the hemolytic activity divided by the antimicrobial activity. The TI thus is a measure of specificity of the particular peptide for microbial membranes as opposed to human blood cell membranes. In the present studies, antimicrobial activities are reported as minimum inhibitory concentrations (MIC)—the lowest concentration of peptide (μg/ml) found to inhibit growth of the particular microbe. Hemolytic activity is reported as the concentration of peptide that effected complete lysis of blood cells after four hours. Thus, in the context of the present invention high TI values indicate microbial specificity and relative lack of toxicity.

[2] = system: P. aeruginosa H188; assay type: cell-based, Pseudomonas aeruginosa; settings: H188
Description: as §1
as §2, with “growth. […]” for “growth.”

[3] = system: E. coli UB1005; assay type: cell-based, Escherichia coli; settings: UB1005
Description: as §1
as §2, with “growth. […]” for “growth.”

[4] = system: E. coli DC2; assay type: cell-based, Escherichia coli; settings: DC2
Description: as §1, §2, §3

[5] = system: S. typhinurium C610; assay type: cell-based, Salmonella typhinurium
Description: as §1
as §2, with “growth. […]” for “growth.”

[6] = system: S. aureus K147; assay type: cell-based, Staphylococcus aureus
Description: as §1, §2, §3

[7] = system: S. aureus SAP0017; assay type: cell-based, Staphylococcus aureus
Description: as §1, §2, §3

[8] = system: S. epidermidis; assay type: cell-based, Staphylococcus epidermidis
Description: as §1
as §2, with “growth. […]” for “growth.”

[9] = system: B. subtilis; assay type: cell-based, Bacillus subtilis
Description: as §1
as §2, with “growth. […]” for “growth.”

[10] = system: E. faecalis; assay type: cell-based, Enterococcus faecalis
Description: as §1
as §2, with “growth. […]” for “growth.”

[11] = system: C. xeroses; assay type: cell-based, Corynebacterium xerosis
Description: as §1
as §2, with “growth. […]” for “growth.”

[12] = system: C. Albicans; assay type: cell-based, Candida albicans
Description: as §1
as §2, with “growth. […]” for “growth.”

[13] = Displacement of dansyl-polymyxin from LPS; assay type: binding, P. aeruginosa; settings: read-out: LPS binding affinity: peptide concentration to displace 50% of dansyl-polymyxin B from LPS; Tables 1, 4, 7
Description: In order to determine whether ring size affects the interaction between the peptide and bacterial membranes, we studied the interaction between the GS ring analogs and bacterial lipopolysaccharide (LPS). It has been shown previously that dansyl-polymixin (DPX) is a good probe for cationic binding sites on both purified LPS as well as whole bacterial cells (Example 8; Moore, et al., 1986; Sawyer, et al., 1988; Hancock, 1981). […] The LPS binding activity of various GS analogs was investigated, as discussed above.
Dansyl-polymixin (DPX) displacement from P. aeruginosa LPS was measured as described (Moore, et al., 1986). Briefly, peptides were titrated into cuvettes containing 3 μg of LPS per mL and 2.5 μM dansyl-polymixin (approximately 90% saturation of LPS binding sites) in 1 mL of 5 mM sodium HEPES buffer, pH 7.0, and the decrease in fluorescence recorded. A plot of the inverse of the percent inhibition as a function of the inverse of inhibitor concentration gave a value for I50, the inhibitor concentration resulting in 50% displacement of dansyl-polymixin from LPS (−1/× intercept).

[14] = system: S. typhinurium C587; assay type: cell-based, Salmonella typhinurium
Description: as §1
as §2, with “growth. […]” for “growth.”

SMILES | Minimum Inhibitory Concentration (activity) [1] | Minimum Inhibitory Concentration (activity) [2] | Minimum Inhibitory Concentration (activity) [3] | Minimum Inhibitory Concentration (activity) [4] | Minimum Inhibitory Concentration (activity) [5] | Minimum Inhibitory Concentration (activity) [6] | Minimum Inhibitory Concentration (activity) [7] | Minimum Inhibitory Concentration (activity) [8] | Minimum Inhibitory Concentration (activity) [9] | Minimum Inhibitory Concentration (activity) [10] | Minimum Inhibitory Concentration (activity) [11] | Minimum Inhibitory Concentration (activity) [12] | IC50 [13] | Minimum Inhibitory Concentration (activity) [14]
CC(C)C[C@@H]1NC(=O)[C@H](CCCCN)NC(=O)[C@H](C(C)C)NC(=O)[C@@H]2CCCN2C(=O)[C@@H](Cc2ccc(O)cc2)NC(=O)[C@H](CC(C)C)NC(=O)[C@@H](CCCCN)NC(=O)[C@H](C(C)C)NC(=O)[C@H](CCCCN)NC(=O)[C@H](CC(C)C)NC(=O)[C@@H]2CCCN2C(=O)[C@@H](Cc2ccc(O)cc2)NC(=O)[C@H](C(C)C)NC(=O)[C@H](CCCCN)NC1=O [GS14K11] | 37 µg/mL | 5 µg/mL | 6.2 µg/mL | 3.1 µg/mL | 6.2 µg/mL | 25 µg/mL | 25 µg/mL | 3.1 µg/mL | 25 µg/mL | 1.5 µg/mL | 0.8 µg/mL | 6.2 µg/mL | 50 µM | –
CC(C)C[C@@H]1NC(=O)[C@H](CCCCN)NC(=O)[C@H](C(C)C)NC(=O)[C@@H]2CCCN2C(=O)[C@@H](Cc2ccc(O)cc2)NC(=O)[C@H](CC(C)C)NC(=O)[C@H](CCCCN)NC(=O)[C@H](C(C)C)NC(=O)[C@H](CCCCN)NC(=O)[C@H](CC(C)C)NC(=O)[C@@H]2CCCN2C(=O)[C@@H](Cc2ccc(O)cc2)NC(=O)[C@H](C(C)C)NC(=O)[C@@H](CCCCN)NC1=O [GS14K4] | 25 µg/mL | 3.1 µg/mL | 6.2 µg/mL | 3.1 µg/mL | 4 µg/mL | 100 µg/mL | 50 µg/mL | 2 µg/mL | 25 µg/mL | 1.5 µg/mL | 1.5 µg/mL | – | 93 µM | –
CC(C)C[C@@H]1NC(=O)[C@H](CCCCN)NC(=O)[C@H](C(C)C)NC(=O)[C@@H]2CCCN2C(=O)[C@@H](Cc2ccc(O)cc2)NC(=O)[C@H](CC(C)C)NC(=O)[C@H](CCCCN)NC(=O)[C@H](C(C)C)NC(=O)[C@H](CCCCN)NC(=O)[C@@H](CC(C)C)NC(=O)[C@@H]2CCCN2C(=O)[C@@H](Cc2ccc(O)cc2)NC(=O)[C@H](C(C)C)NC(=O)[C@H](CCCCN)NC1=O [GS14L8] | 37 µg/mL | 3.1 µg/mL | 6.2 µg/mL | 3.1 µg/mL | 6.2 µg/mL | 50 µg/mL | 25 µg/mL | 3.1 µg/mL | – | 1.5 µg/mL | 0.8 µg/mL | 6.2 µg/mL | 62 µM | –
CC(C)C[C@@H]1NC(=O)[C@H](CCCCN)NC(=O)[C@H](C(C)C)NC(=O)[C@@H]2CCCN2C(=O)[C@@H](Cc2ccc(O)cc2)NC(=O)[C@H](CC(C)C)NC(=O)[C@H](CCCCN)NC(=O)[C@@H](C(C)C)NC(=O)[C@H](CCCCN)NC(=O)[C@H](CC(C)C)NC(=O)[C@@H]2CCCN2C(=O)[C@@H](Cc2ccc(O)cc2)NC(=O)[C@H](C(C)C)NC(=O)[C@H](CCCCN)NC1=O [GS14V10] | >200 µg/mL | 200 µg/mL | 200 µg/mL | 3.1 µg/mL | 200 µg/mL | 200 µg/mL | 50 µg/mL | 3.1 µg/mL | – | 1.5 µg/mL | 0.8 µg/mL | 17 µg/mL | 18 µM | >200 µg/mL

From patent publication US6358921B1, “Antimicrobial peptide compositions and method” (priority 1996, dated 2002)
